The test system of one assay is NF-kB. Description: NF-kB activity assay in DC2.4-NFkB-GLuc reporter cells. As to conditions: indole 24 hours, LPS 10 ug/ml. It counts as cell-based, murine.
A further assay concerns TNF. Description: TNF production in BMDMs, intracellular staining, flow cytometry. It counts as cell-based, mouse. How it is done:
BMDMs were treated with indole or DMF control for 18 hours or 4 hours, followed by stimulation with LPS (2 ug/ml or 250 ng/ml) for 4 hours in the presence of Golgiplug. BMDMs were then stained for intracellular TNF or IL-12 and analyzed by flow cytometry.
First, pro-inflammatory cytokine production in macrophages was investigated. […] In the DC study described herein, DCs were typically conditioned with indole during their development from bone marrow precursors in order to mimic the proximity of DC progenitor cells to indole in the intestinal microenvironment during development. […] BMDMs were treated for 18 hours with indole, followed by a 4 hour stimulation with either a very high (2 ug/ml) or low (250 ng/ml) dose of LPS.
Additionally, to determine if recently arrived macrophage precursors might also be affected, BMDMs were next treated for just 4 hours with indole, followed by a […] stimulation with the same LPS concentrations.
To address the question of indole and AhR dependence in macrophages, experiments using BMDMs derived from AhR-knockout mice were run alongside wild-type littermate controls. Specifically, flow cytometric analysis of BMDMs was performed on WT or AhR-KO mice and treated with indole or DMF control for 18 hours. BMDMs were stimulated for 4 hours with LPS (50 ng/ml) in the presence of Golgiplug, then stained for intracellular TNF (left panels) and IL-12 (right panels).
(§1) The inventors performed a series of assays where bone marrow derived macrophages (BMDMs), bone marrow derived dendritic cells (BMDCs), and splenic dendritic cells (splenic DCs), were exposed to a series of TDMMs, including indole, indole-3-acetate (I3AT), 5-hydroxyindole (5HI), and indole-3-pyruvate (I3P), as well as indole-3-carbinol (I3C; a plant derived compound) to be used for a positive control (1 mM for 24 hours). The BMDMs and BMDCs were stimulated with LPS for 4 hours and assayed at day 7 for expression of various pro-inflammatory cytokines. In a similar assay, the BMDMs and BMDCs were stimulated with LPS or CpG, respectively, for 15 minutes and assayed for pAKT and pERK signaling, which is a reflection of pro-inflammatory response.
Bone marrow was harvested as described above and cultured at a density of 1×10^6 cells in 10 ml complete media supplemented with 10 ng/ml M-CSF (Peprotech) in 100 mm×15 mm petri dishes. Media with cytokine was replenished on day 3. Adherent and semi-adherent cells were recovered on day 7, plated, and treated with indole prior to downstream experiments.
A general note: Flow cytometry measures light scatter and fluorescence of single cells or particles in a stream.

For another assay, the target named is T1, AhR (Homo sapiens, UniProt P35869).
T1 construct: host or cells: CaC-2 intestinal cells; yeast; a liver cancer cell line
T1 sequence (P35869 11-848): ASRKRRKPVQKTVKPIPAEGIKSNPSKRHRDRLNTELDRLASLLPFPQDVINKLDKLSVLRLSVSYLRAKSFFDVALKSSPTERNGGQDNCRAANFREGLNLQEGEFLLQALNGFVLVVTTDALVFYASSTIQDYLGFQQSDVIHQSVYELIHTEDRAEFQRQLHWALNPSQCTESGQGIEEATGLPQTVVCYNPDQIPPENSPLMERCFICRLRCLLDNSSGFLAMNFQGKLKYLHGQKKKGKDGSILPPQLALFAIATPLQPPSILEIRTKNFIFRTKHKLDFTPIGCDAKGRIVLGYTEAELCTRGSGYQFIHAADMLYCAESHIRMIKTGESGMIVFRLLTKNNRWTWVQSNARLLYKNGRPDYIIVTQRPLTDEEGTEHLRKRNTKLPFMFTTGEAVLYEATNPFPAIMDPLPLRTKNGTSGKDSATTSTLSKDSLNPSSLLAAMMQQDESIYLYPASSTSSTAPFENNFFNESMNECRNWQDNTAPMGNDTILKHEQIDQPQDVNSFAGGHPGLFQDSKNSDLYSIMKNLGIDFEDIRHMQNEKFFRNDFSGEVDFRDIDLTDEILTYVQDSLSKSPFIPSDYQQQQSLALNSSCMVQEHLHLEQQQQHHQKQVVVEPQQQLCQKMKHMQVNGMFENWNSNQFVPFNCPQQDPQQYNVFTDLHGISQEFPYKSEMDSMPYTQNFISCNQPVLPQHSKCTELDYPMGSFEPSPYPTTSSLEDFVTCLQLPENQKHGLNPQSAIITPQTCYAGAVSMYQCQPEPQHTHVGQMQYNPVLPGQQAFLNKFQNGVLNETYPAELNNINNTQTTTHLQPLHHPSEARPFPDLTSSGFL
Particulars: cited from earlier work.

The next assay has as its system IL-12. Description: IL-12 production in BMDCs, intracellular staining, flow cytometry. It counts as cell-based, mouse. How it is done: Intracellular staining was performed to assess TNF (FIG. 3A) and IL-12 (FIG. 3B) production.
Briefly, bone marrow was harvested from femurs of mice and cultured for 7 days in the presence of DC-skewing cytokines, GM-CSF and IL-4. […] The pro-inflammatory cytokines, IL-6 and IL-12, were specifically queried. […] Immune cells communicate largely through the production of soluble factors including cytokines, and DCs detect these signals and determine their effector functions accordingly.
as §1

A value given as a limit tells only on which side of the number the result lay.

Description for NF-kB: Supernatants were collected and assayed for GLuc concentration in terms of relative luminescence units (RLU). *p<0.05 by Student's t test comparing treated samples to untreated, LPS-stimulated sample.
To maintain consistency with the cytokine studies, the bacterial surface molecule LPS were utilized to induce NF-kB activity.
Culture supernatants were collected at 8 and 24 hours and assayed for GLuc using Biolux Gaussia Luciferase assay kit (New England BioLabs).

Consider `c1ccc2[nH]ccc2c1` [Indole, indole], for which, in the assay on NF-kB, the “inhibition of NF-kB signaling” value was “approximately one-third”. Further, the “reduction of TNF production” value with TNF (BMDMs from WT or AhR-KO mice, 1 mM indole 18 hours, LPS 50 ng/ml 4 hours) is recorded as “approximately 2 fold”. Moreover, the TNF result with TNF (BMDMs, 1 mM TDMM 24 hours, LPS 1 ug/ml 4 hours) is recorded as “↓↓↓”. The “inhibition of TNF production” value in the assay on TNF (BMDMs, 1 mM indole 18 hours, LPS 2 ug/ml or 250 ng/ml 4 hours) was approximately 2 fold. Also, the “AhR activity in CaC-2 intestinal cells” value at AhR (previous finding of the inventors) was “antagonist”. In addition, on AhR (previously reported), the “AhR effect in a liver cancer cell line” value is “antagonistic” and the “AhR effect in yeast” value is “agonistic”. In addition, the “reduction in IL-12” value in the assay with IL-12 (BMDCs exposed to indole from day 3 of 7 day culture, LPS stimulation) was found to be 40%. Moreover, in the assay on IL-12 (BMDCs, 1 mM TDMM 24 hours, LPS (1 ug/ml) 4 hours), the IL-12 entry is “↓↓”. Also, the “inhibition of IL-12 production” value in the assay with IL-12 (BMDCs, indole 24 hours (overnight), LPS 1 ug/ml 4 hours) is listed as not below 2 fold.

The record behind these values is patent US11612586B2, “Indole regulation of antigen presenting cells” (THE TEXAS A&M UNIVERSITY SYSTEM, priority 2016, dated 2023).
